For one experiment, the target named is T1, KRas^G12D (Homo sapiens, UniProt P01116, G12D).
T1 construct: Biotinylated KRas (corresponding to amino acids 1-169, produced at Accelegan Inc.); biotin (biotinylated); purchased Accelegan Inc
Put plainly: KRas binding assay (TR-FRET tracer displacement), KRas G12D.

The target of a further experiment is T2, KRas^G12R (Homo sapiens, UniProt P01116, G12R).
T2 construct: Biotinylated KRas (corresponding to amino acids 1-169, produced at Accelegan Inc.); biotin (biotinylated); purchased Accelegan Inc
T2 sequence (P01116 1-169 isoform P01116-2 G12R): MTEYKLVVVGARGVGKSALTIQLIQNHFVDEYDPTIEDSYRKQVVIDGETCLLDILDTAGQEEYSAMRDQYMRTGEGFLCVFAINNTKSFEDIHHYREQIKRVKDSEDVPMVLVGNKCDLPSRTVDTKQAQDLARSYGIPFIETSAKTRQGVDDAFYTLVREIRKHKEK
Nature of the experiment: KRas binding assay (TR-FRET tracer displacement), KRas G12R. (Time-resolved FRET reads energy transfer from a long-lived donor to a nearby acceptor.)

In the next experiment the target is T3, KRas^G12V (Homo sapiens, UniProt P01116, G12V).
T3 construct: Biotinylated KRas (corresponding to amino acids 1-169, produced at Accelegan Inc.); biotin (biotinylated); purchased Accelegan Inc
T3 sequence (P01116 1-169 isoform P01116-2 G12V): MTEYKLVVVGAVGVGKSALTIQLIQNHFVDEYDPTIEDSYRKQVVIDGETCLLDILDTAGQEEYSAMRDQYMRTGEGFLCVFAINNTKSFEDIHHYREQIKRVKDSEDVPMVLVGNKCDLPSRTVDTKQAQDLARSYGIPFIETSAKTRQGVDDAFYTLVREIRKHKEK
Nature of the experiment: KRas binding assay (TR-FRET tracer displacement), KRas G12V.

The subject of experiment [1] is KRas-mediated phosphorylation of ERK in AsPC-1 cells. Nature of the experiment: Inhibition of KRas-mediated phosphorylation of ERK (Cisbio HTRF pERK), AsPC-1 cells. It is filed as cell-based. To be noted: Homo sapiens, ASPC1, AsPC-1 cells; HTRF pERK. The method in brief: (§1)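 Each compound was tested at 10 concentrations, threefold apart with 10 uM the highest, for 3 hrs on 6,000 seeded cells; final DMSO was 0.8% and Trametinib (0.2 uM) served as Min control. Lysed cells were analysed for pERK by HTRF.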

Experiment [2] deals with KRas-mediated phosphorylation of ERK in H727 cells. Nature of the experiment: Inhibition of KRas-mediated phosphorylation of ERK (Cisbio HTRF pERK), H727 cells. The format is cell-based. The note with it: Homo sapiens, NCI-H727, H727 cells; HTRF pERK. The procedure, abridged: as §1

Structures are written as SMILES.

T1 sequence (P01116 1-169 isoform P01116-2 G12D): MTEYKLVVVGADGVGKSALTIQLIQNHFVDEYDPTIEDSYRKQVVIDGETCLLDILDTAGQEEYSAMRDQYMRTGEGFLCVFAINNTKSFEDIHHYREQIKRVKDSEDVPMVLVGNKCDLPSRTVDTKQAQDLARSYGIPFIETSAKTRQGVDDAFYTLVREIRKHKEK

Broadly, the IC50 is the concentration that gives 50% inhibition. A higher IC50 goes with weaker potency in that assay. Regarding `CCc1c(F)ccc2cc(O)cc(-c3ncc4c(N5CCO[C@@H](CS(N)(=O)=O)C5)nc(OC[C@@]56CCCN5C[C@H](F)C6)nc4c3F)c12` [Example 636, 1-((R)-4-(7-(8-ethyl-7-fluoro-3-hydroxynaphthalen-1-yl)-8-fluoro-2-(((2R,7aS)-2-fluorotetrahydro-1H-pyrrolizin-7a(5H)-yl)methoxy)pyrido[4,3-d]pyrimidin-4-yl)morpholin-2-yl)methanesulfonamide], the IC50 is 10 nM on KRas^G12D; less than 2 nM at KRas^G12R; 3 nM on KRas^G12V; 4190 nM in experiment [1]; 1810 nM in experiment [2].
In the case of `CCc1c(F)ccc2cc(O)cc(-c3ncc4c(N5CCCC(N6C(=O)CCC6=O)C5)nc(OC[C@@]56CCCN5C[C@H](F)C6)nc4c3F)c12` (stereo partly drawn) [Example 638, 1-(1-(7-(8-ethyl-7-fluoro-3-hydroxynaphthalen-1-yl)-8-fluoro-2-(((2R,7aS)-2-fluorotetrahydro-1H-pyrrolizin-7a(5H)-yl)methoxy)pyrido[4,3-d]pyrimidin-4-yl)piperidin-3-yl)pyrrolidine-2,5-dione], the 50% inhibitory concentration (IC50) on KRas^G12D worked out at 41 nM; on KRas^G12R, 16 nM; on KRas^G12V it was 34 nM; in experiment [1] it was 930 nM; in experiment [2] it was 1270 nM.
As for `CCc1c(F)ccc2cc(O)cc(-c3ncc4c(NCc5cn(C(=O)N(C)C)nc5N)nc(OC[C@@]56CCCN5C[C@H](F)C6)nc4c3F)c12` [Example 639, 3-amino-4-(((7-(8-ethyl-7-fluoro-3-hydroxynaphthalen-1-yl)-8-fluoro-2-(((2R,7aS)-2-fluorohexahydro-1H-pyrrolizin-7a-yl)methoxy)pyrido[4,3-d]pyrimidin-4-yl)amino)methyl)-N,N-dimethyl-1H-pyrazole-1-carboxamide], the IC50 on KRas^G12D was 13 nM; at KRas^G12R it was 2 nM; on KRas^G12V it was 2 nM; in experiment [1], 1040 nM; in experiment [2], 718 nM.
Take `CCc1c(F)ccc2cc(O)cc(-c3ncc4c(N5C[C@@H]6[C@@H](CC(N)=O)NC(=O)[C@@H]6C5)nc(OC[C@@]56CCCN5C[C@H](F)C6)nc4c3F)c12` [Example 641, 2-((1R,3aS,6aR)-5-(7-(8-ethyl-7-fluoro-3-hydroxynaphthalen-1-yl)-8-fluoro-2-(((2R,7aS)-2-fluorotetrahydro-1H-pyrrolizin-7a(5H)-yl)methoxy)pyrido[4,3-d]pyrimidin-4-yl)-3-oxooctahydropyrrolo[3,4-c]pyrrol-1-yl)acetamide]: the IC50 was 3120 nM on KRas^G12D; 540 nM at KRas^G12R; 632 nM on KRas^G12V; more than 10000 nM in experiment [1]; more than 10000 nM in experiment [2].
As for `CCc1c(F)ccc2cc(O)cc(-c3ncc4c(N5C[C@@H]6[C@@H](C(F)(F)F)C[C@]6(CO)C5)nc(OC[C@@]56CCCN5C[C@H](F)C6)nc4c3F)c12` [Example 647, 5-ethyl-6-fluoro-4-(8-fluoro-2-(((2R,7aS)-2-fluorohexahydro-1H-pyrrolizin-7a-yl)methoxy)-4-((1R,5R,6S)-1-(hydroxymethyl)-6-(trifluoromethyl)-3-azabicyclo[3.2.0]heptan-3-yl)pyrido[4,3-d]pyrimidin-7-yl)naphthalen-2-ol], the IC50 was 1990 nM on KRas^G12D; 582 nM at KRas^G12R; 581 nM on KRas^G12V; 9340 nM in experiment [1]; more than 10000 nM in experiment [2].
In the case of `CCc1c(F)ccc2cc(O)cc(-c3ncc4c(N5CC6(CO)CC(C7CCCC7)(C5)C6)nc(OC[C@@]56CCCN5C[C@H](F)C6)nc4c3F)c12` [Example 648, 4-(4-(1-cyclopentyl-5-(hydroxymethyl)-3-azabicyclo[3.1.1]heptan-3-yl)-8-fluoro-2-(((2R,7aS)-2-fluorohexahydro-1H-pyrrolizin-7a-yl)methoxy)pyrido[4,3-d]pyrimidin-7-yl)-5-ethyl-6-fluoronaphthalen-2-ol], the IC50 is 9120 nM on KRas^G12D; 7370 nM on KRas^G12R; 6080 nM on KRas^G12V; more than 10000 nM in experiment [1]; more than 10000 nM in experiment [2].
In the case of `CCc1c(F)ccc2cc(O)cc(-c3ncc4c(N5CCCC(S(=O)(=O)C(F)F)C5)nc(OC[C@@]56CCCN5C[C@H](F)C6)nc4c3F)c12` (stereo partly drawn) [Example 652, 4-(4-(3-((difluoromethyl)sulfonyl)piperidin-1-yl)-8-fluoro-2-(((2R,7aS)-2-fluorotetrahydro-1H-pyrrolizin-7a(5H)-yl)methoxy)pyrido[4,3-d]pyrimidin-7-yl)-5-ethyl-6-fluoronaphthalen-2-ol], the IC50 was 125 nM at KRas^G12D; 51 nM at KRas^G12R; 40 nM at KRas^G12V; 2280 nM in experiment [1]; 1390 nM in experiment [2].
The matching figures for `CCc1c(F)ccc2cc(O)cc(-c3ncc4c(SCc5cc(C(=O)N(C)C)nn5C)nc(OC[C@@]56CCCN5C[C@H](F)C6)nc4c3F)c12` [Example 653, 5-(((7-(8-ethyl-7-fluoro-3-hydroxynaphthalen-1-yl)-8-fluoro-2-(((2R,7aS)-2-fluorohexahydro-1H-pyrrolizin-7a-yl)methoxy)pyrido[4,3-d]pyrimidin-4-yl)thio)methyl)-N,N,1-trimethyl-1H-pyrazole-3-carboxamide]: 123 nM, 16 nM, 20 nM, more than 10000 nM and more than 10000 nM.
Turning to `CCc1c(F)ccc2cc(O)cc(-c3ncc4c(N5CCCC6(C5)CN(S(C)(=O)=O)C6)nc(OC[C@@]56CCCN5C[C@H](F)C6)nc4c3F)c12` [Example 654, 5-ethyl-6-fluoro-4-(8-fluoro-2-(((2R,7aS)-2-fluorohexahydro-1H-pyrrolizin-7a-yl)methoxy)-4-(2-(methylsulfonyl)-2,6-diazaspiro[3.5]nonan-6-yl)pyrido[4,3-d]pyrimidin-7-yl)naphthalen-2-ol], the IC50 on KRas^G12D was found to be 19 nM; on KRas^G12R it was 18 nM; on KRas^G12V, 25 nM; in experiment [1], 1410 nM; in experiment [2] it was 1790 nM.
Take `CCc1c(F)ccc2cc(O)cc(-c3ncc4c(N5CCC(N6CCCCS6(=O)=O)C5)nc(OC[C@@]56CCCN5C[C@H](F)C6)nc4c3F)c12` (stereo partly drawn) [Example 655, 2-(1-(7-(8-ethyl-7-fluoro-3-hydroxynaphthalen-1-yl)-8-fluoro-2-(((2R,7aS)-2-fluorotetrahydro-1H-pyrrolizin-7a(5H)-yl)methoxy)pyrido[4,3-d]pyrimidin-4-yl)pyrrolidin-3-yl)-1,2-thiazinane 1,1-dioxide]: the half-inhibitory concentration (IC50) at KRas^G12D is 2880 nM; on KRas^G12R, 633 nM; on KRas^G12V, 291 nM; in experiment [1], more than 10000 nM; in experiment [2] it was more than 10000 nM.
As for `CCc1c(F)ccc2cc(O)cc(-c3ncc4c(N5CCC(N6C(=O)OC7CNCC76)CC5)nc(OC[C@@]56CCCN5C[C@H](F)C6)nc4c3F)c12` (stereo partly drawn) [Example 659, 3-(1-(7-(8-ethyl-7-fluoro-3-hydroxynaphthalen-1-yl)-8-fluoro-2-(((2R,7aS)-2-fluorotetrahydro-1H-pyrrolizin-7a(5H)-yl)methoxy)pyrido[4,3-d]pyrimidin-4-yl)piperidin-4-yl)hexahydro-2H-pyrrolo[3,4-d]oxazol-2-one], the IC50 is 462 nM on KRas^G12D; 1610 nM at KRas^G12R; 582 nM on KRas^G12V; more than 10000 nM in experiment [1]; more than 10000 nM in experiment [2].
`CCc1c(F)ccc2cc(O)cc(-c3ncc4c(N5CCCn6nc(S(N)(=O)=O)cc6C5)nc(OC[C@@]56CCCN5C[C@H](F)C6)nc4c3F)c12` [Example 661, 5-(7-(8-ethyl-7-fluoro-3-hydroxynaphthalen-1-yl)-8-fluoro-2-(((2R,7aS)-2-fluorohexahydro-1H-pyrrolizin-7a-yl)methoxy)pyrido[4,3-d]pyrimidin-4-yl)-5,6,7,8-tetrahydro-4H-pyrazolo[1,5-a][1,4]diazepine-2-sulfonamide]: the IC50 at KRas^G12D is 680 nM; at KRas^G12R it was 699 nM; at KRas^G12V, 1740 nM; in experiment [1], more than 10000 nM; in experiment [2], more than 10000 nM.
`CCc1c(F)ccc2cc(O)cc(-c3ncc4c(N5C[C@@H]6[C@@H](CS(N)(=O)=O)NC(=O)[C@@H]6C5)nc(OC[C@@]56CCCN5C[C@H](F)C6)nc4c3F)c12` [Example 665, 1-((1S,3aS,6aR)-5-(7-(8-ethyl-7-fluoro-3-hydroxynaphthalen-1-yl)-8-fluoro-2-(((2R,7aS)-2-fluorotetrahydro-1H-pyrrolizin-7a(5H)-yl)methoxy)pyrido[4,3-d]pyrimidin-4-yl)-3-oxooctahydropyrrolo[3,4-c]pyrrol-1-yl)methanesulfonamide]: the IC50 is 1980 nM at KRas^G12D; 1250 nM at KRas^G12R; 966 nM at KRas^G12V; 1240 nM in experiment [1]; 3120 nM in experiment [2].
The like results for `CCc1c(F)ccc2cc(O)cc(-c3ncc4c(N5CCOCC6(CCS(=O)(=O)CC6)C5)nc(OC[C@@]56CCCN5C[C@H](F)C6)nc4c3F)c12` [Example 667, 11-(7-(8-ethyl-7-fluoro-3-hydroxynaphthalen-1-yl)-8-fluoro-2-(((2R,7aS)-2-fluorohexahydro-1H-pyrrolizin-7a-yl)methoxy)pyrido[4,3-d]pyrimidin-4-yl)-8-oxa-3-thia-11-azaspiro[5.6]dodecane 3,3-dioxide] were, in that order, 445 nM, 323 nM, 203 nM, 6150 nM and 6050 nM.

The record behind these values is patent publication US20260015350A1, “AZAQUINAZOLINE PAN-KRAS INHIBITORS” (Mirati Therapeutics, Inc., priority 2022, published 2026).
